Consider 13 compounds from ChEMBL document CHEMBL1149532, “Identification of 2-(4,5,6,7-tetrahydro-1H-pyrrolo[3,2-c]pyridin-3-yl)-ethylamine derivatives as novel GnRH receptor antagonists” (Bioorg Med Chem Lett, 2007).

Active and inactive are the calls of the source. No cut-off for these calls is given here.

The term IC50 denotes the midpoint of a concentration-inhibition curve. For orientation: AUC means concentration integrated over time. The low end stands for less exposure, the high end for more exposure. As usually defined, the Ki is the equilibrium dissociation constant of an inhibitor or competing ligand from its target.

In the first data set the target is T1, Gonadotropin-releasing hormone receptor (Homo sapiens, UniProt P30968).
T1 sequence (P30968 whole entry): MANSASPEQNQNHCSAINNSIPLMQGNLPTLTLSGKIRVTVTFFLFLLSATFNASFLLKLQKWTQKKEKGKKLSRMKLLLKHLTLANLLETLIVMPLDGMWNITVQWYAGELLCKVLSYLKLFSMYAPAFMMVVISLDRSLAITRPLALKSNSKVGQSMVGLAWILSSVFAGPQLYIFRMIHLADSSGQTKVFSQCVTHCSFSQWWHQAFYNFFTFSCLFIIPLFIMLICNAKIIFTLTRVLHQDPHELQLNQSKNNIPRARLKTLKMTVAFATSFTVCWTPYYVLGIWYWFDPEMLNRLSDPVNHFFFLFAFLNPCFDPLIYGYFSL
Briefly: Inhibition of human GnRHR expressed in RBL cells assessed as inhibition of GnRH-stimulated [3H]inositol phosphate hydrolysis. The format is functional, cell-based.
Conditions: not given
Regarding `Cc1cc(C)cc(-c2[nH]c3c(c2[C@H](C)CNCCc2ccc(=O)n(C)c2)CN(C(=O)Cc2c(F)cccc2C(F)(F)F)CC3)c1`, the IC50 was 32 nM.
Still for that read-out and setting: the same measure for `Cc1cc(C)cc(-c2[nH]c3c(c2[C@H](C)CNCCc2ccc4nn[nH]c4c2)CN(C(=O)Cc2c(F)cccc2C(F)(F)F)CC3)c1`: 26 nM.
The same measure, in the same setting: the same measure for `Cc1cc(C)cc(-c2[nH]c3c(c2[C@H](C)CNCCc2cnc4nn[nH]c4c2)CN(C(=O)Cc2c(F)cccc2C(F)(F)F)CC3)c1`: 9 nM; for `Cc1cc(C)cc(-c2[nH]c3c(c2[C@H](C)CNCCc2ccc4nc(C)[nH]c4c2)CN(C(=O)Cc2c(F)cccc2C(F)(F)F)CC3)c1`: 87 nM.
The same measure, in the same setting: the same measure for `Cc1cc(C)cc(-c2[nH]c3c(c2[C@H](C)CNCCc2ccncc2)CN(C(=O)Cc2ccccc2)CC3)c1`: 1110 nM.
For the compound `Cc1cc(C)cc(-c2[nH]c3c(c2[C@H](C)CNCCc2ccc(-c4nnn[nH]4)cc2)CN(C(=O)Cc2c(F)cccc2C(F)(F)F)CC3)c1`, the IC50 worked out at 1.5 nM.
Same read-out and setting: with `Cc1cc(C)cc(-c2[nH]c3c(c2[C@H](C)CNCCc2ccc(-c4nnn[nH]4)nc2)CN(C(=O)Cc2c(F)cccc2C(F)(F)F)CC3)c1` the figure was 7 nM.
The same measure, in the same setting: the same measure for `Cc1cc(C)cc(-c2[nH]c3c(c2[C@H](C)CNCc2ccc(-c4nnn[nH]4)cc2)CN(C(=O)Cc2c(F)cccc2C(F)(F)F)CC3)c1`: 1600 nM.
Regarding `Cc1cc(C)cc(-c2[nH]c3c(c2[C@H](C)CN)CN(C(=O)Cc2c(F)cccc2C(F)(F)F)CC3)c1`, the IC50 amounted to 4180 nM.
Still for that read-out and setting: the same measure for `Cc1cc(C)cc(-c2[nH]c3c(c2[C@H](C)CNCCC2CCOCC2)CN(C(=O)Cc2c(F)cccc2C(F)(F)F)CC3)c1`: 205 nM; for `Cc1cc(C)cc(-c2[nH]c3c(c2[C@H](C)CNCCOc2ccc(-c4nnn[nH]4)cc2)CN(C(=O)Cc2c(F)cccc2C(F)(F)F)CC3)c1`: 63 nM; for `Cc1cc(C)cc(-c2[nH]c3c(c2[C@H](C)CNCCc2ccncc2)CN(C(=O)Cc2ccccc2Cl)CC3)c1`: 267 nM.
Still for that read-out and setting: with `Cc1cc(C)cc(-c2[nH]c3c(c2[C@H](C)CNCCc2ccncc2)CNCC3)c1` the figure was more than 10000 nM.

The next data set concerns the target T2, Gonadotropin-releasing hormone receptor (Rattus norvegicus) (UniProt P30969).
T2 sequence (whole entry): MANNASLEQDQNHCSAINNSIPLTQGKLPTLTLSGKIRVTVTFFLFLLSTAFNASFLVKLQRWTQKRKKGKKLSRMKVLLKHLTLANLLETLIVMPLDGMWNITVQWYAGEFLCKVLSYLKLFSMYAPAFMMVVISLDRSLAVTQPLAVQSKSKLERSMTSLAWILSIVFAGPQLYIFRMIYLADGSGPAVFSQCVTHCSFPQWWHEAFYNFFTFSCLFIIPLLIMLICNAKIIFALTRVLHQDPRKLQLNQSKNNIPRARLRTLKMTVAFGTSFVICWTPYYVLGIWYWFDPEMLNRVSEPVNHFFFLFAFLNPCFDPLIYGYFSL
The data set is described as follows: Decrease in LH concentration in rat plasma at 1.5 mg/kg, ip after 24 hrs by radioimmunoassay. The format is functional, organism-based. Also noted: dose 1.5 mg/kg.
Conditions: not given
With `Cc1cc(C)cc(-c2[nH]c3c(c2[C@H](C)CNCCc2ccc(-c4nnn[nH]4)cc2)CN(C(=O)Cc2c(F)cccc2C(F)(F)F)CC3)c1`, the Activity entry was “Dose-dependent effect”.

Test system in a further data set: not listed separately
The data set is described as follows: AUC in rat at 4.5 mg/kg, ip after 24 hrs. The format is ADME, organism-based. Also noted: time < 24 hr, dose 4.5 mg/kg, route intraperitoneal. The note with it: plasma.
As to `Cc1cc(C)cc(-c2[nH]c3c(c2[C@H](C)CNCCc2ccc(-c4nnn[nH]4)cc2)CN(C(=O)Cc2c(F)cccc2C(F)(F)F)CC3)c1`, the AUC at 24 h turned out to be 2470 ng·h/mL.

For the next data set, the target named is T3, Gonadotropin-releasing hormone receptor (Rattus norvegicus, UniProt P30969).
T3 sequence (P30969 whole entry): T2 sequence (whole entry)
Briefly: Displacement of [125I]-Tyr5, DLeu6, NMeLeu7, Pro-N-Et-GnRH from cloned rat GnRHR.
Conditions: not given
(In general: In a radioligand displacement assay an active substance lowers the binding of a labelled ligand.)
Take `Cc1cc(C)cc(-c2[nH]c3c(c2[C@H](C)CNCCc2ccc(=O)n(C)c2)CN(C(=O)Cc2c(F)cccc2C(F)(F)F)CC3)c1`: the Ki stood at 0.4 nM.
For `Cc1cc(C)cc(-c2[nH]c3c(c2[C@H](C)CNCCc2ccc4nn[nH]c4c2)CN(C(=O)Cc2c(F)cccc2C(F)(F)F)CC3)c1`, the Ki worked out at 0.5 nM.
Same read-out and setting: the same measure for `Cc1cc(C)cc(-c2[nH]c3c(c2[C@H](C)CNCCc2cnc4nn[nH]c4c2)CN(C(=O)Cc2c(F)cccc2C(F)(F)F)CC3)c1`: 0.6 nM.
Still for that read-out and setting: with `Cc1cc(C)cc(-c2[nH]c3c(c2[C@H](C)CNCCc2ccc4nc(C)[nH]c4c2)CN(C(=O)Cc2c(F)cccc2C(F)(F)F)CC3)c1` the figure was 1 nM; with `Cc1cc(C)cc(-c2[nH]c3c(c2[C@H](C)CNCCc2ccncc2)CN(C(=O)Cc2ccccc2)CC3)c1`, 4.5 nM; with `Cc1cc(C)cc(-c2[nH]c3c(c2[C@H](C)CNCCc2ccc(-c4nnn[nH]4)cc2)CN(C(=O)Cc2c(F)cccc2C(F)(F)F)CC3)c1`, 0.2 nM.
The same measure, in the same setting: with `Cc1cc(C)cc(-c2[nH]c3c(c2[C@H](C)CNCCc2ccc(-c4nnn[nH]4)nc2)CN(C(=O)Cc2c(F)cccc2C(F)(F)F)CC3)c1` the figure was 0.6 nM; with `Cc1cc(C)cc(-c2[nH]c3c(c2[C@H](C)CNCc2ccc(-c4nnn[nH]4)cc2)CN(C(=O)Cc2c(F)cccc2C(F)(F)F)CC3)c1`, 1600 nM; with `Cc1cc(C)cc(-c2[nH]c3c(c2[C@H](C)CN)CN(C(=O)Cc2c(F)cccc2C(F)(F)F)CC3)c1`, 470 nM.
`Cc1cc(C)cc(-c2[nH]c3c(c2[C@H](C)CNCCC2CCOCC2)CN(C(=O)Cc2c(F)cccc2C(F)(F)F)CC3)c1` had a Ki of 4.7 nM.
On the same count and under the same terms, the same measure for `Cc1cc(C)cc(-c2[nH]c3c(c2[C@H](C)CNCCOc2ccc(-c4nnn[nH]4)cc2)CN(C(=O)Cc2c(F)cccc2C(F)(F)F)CC3)c1`: 6.2 nM; for `Cc1cc(C)cc(-c2[nH]c3c(c2[C@H](C)CNCCc2ccncc2)CN(C(=O)Cc2ccccc2Cl)CC3)c1`: 2.6 nM.
Turning to `Cc1cc(C)cc(-c2[nH]c3c(c2[C@H](C)CNCCc2ccncc2)CNCC3)c1`, the Ki was more than 10000 nM.

For a further data set, the target named is T3, Gonadotropin-releasing hormone receptor. Briefly: Inhibition of GnRHR in rat pituitary cells assessed as inhibition of GnRH-stimulated LH release. Type of data set: functional, cell-based, Pituitary gland cell.
Conditions: not given
For the compound `Cc1cc(C)cc(-c2[nH]c3c(c2[C@H](C)CNCCc2ccc4nn[nH]c4c2)CN(C(=O)Cc2c(F)cccc2C(F)(F)F)CC3)c1`, the IC50 came out at 1.2 nM.
As to `Cc1cc(C)cc(-c2[nH]c3c(c2[C@H](C)CNCCc2cnc4nn[nH]c4c2)CN(C(=O)Cc2c(F)cccc2C(F)(F)F)CC3)c1`, the IC50 is 6.4 nM.
Still for that read-out and setting: the same measure for `Cc1cc(C)cc(-c2[nH]c3c(c2[C@H](C)CNCCc2ccncc2)CN(C(=O)Cc2ccccc2)CC3)c1`: 110 nM; for `Cc1cc(C)cc(-c2[nH]c3c(c2[C@H](C)CNCCc2ccc(-c4nnn[nH]4)cc2)CN(C(=O)Cc2c(F)cccc2C(F)(F)F)CC3)c1`: 0.6 nM; for `Cc1cc(C)cc(-c2[nH]c3c(c2[C@H](C)CNCCc2ccc(-c4nnn[nH]4)nc2)CN(C(=O)Cc2c(F)cccc2C(F)(F)F)CC3)c1`: 44 nM.
Same read-out and setting: with `Cc1cc(C)cc(-c2[nH]c3c(c2[C@H](C)CNCCC2CCOCC2)CN(C(=O)Cc2c(F)cccc2C(F)(F)F)CC3)c1` the figure was 480 nM.

Test system in a further data set: not listed separately
The data set is described as follows: AUC in rat at 15 mg/kg, ip after 24 hrs. Type of data set: ADME, organism-based. Also on record: time < 24 hr, dose 15 mg/kg, route intraperitoneal. The following applies: plasma.
`Cc1cc(C)cc(-c2[nH]c3c(c2[C@H](C)CNCCc2ccc(-c4nnn[nH]4)cc2)CN(C(=O)Cc2c(F)cccc2C(F)(F)F)CC3)c1`: the AUC at 24 h turned out to be 6500 ng·h/mL.

The target in another data set is T2, Gonadotropin-releasing hormone receptor (Rattus norvegicus). Briefly: Decrease in LH concentration in rat plasma at 15 mg/kg, ip after 24 hrs by radioimmunoassay. Type of data set: functional, organism-based. Also on record: dose 15 mg/kg.
Conditions: not given
As for `Cc1cc(C)cc(-c2[nH]c3c(c2[C@H](C)CNCCc2ccc(-c4nnn[nH]4)cc2)CN(C(=O)Cc2c(F)cccc2C(F)(F)F)CC3)c1`, the outcome was Active.

Test system in another data set: not listed separately
Briefly: AUC in rat at 1.5 mg/kg, ip after 24 hrs. Type of data set: ADME, organism-based. Also noted: time < 24 hr, dose 1.5 mg/kg, route intraperitoneal. The note with it: plasma.
As to `Cc1cc(C)cc(-c2[nH]c3c(c2[C@H](C)CNCCc2ccc(-c4nnn[nH]4)cc2)CN(C(=O)Cc2c(F)cccc2C(F)(F)F)CC3)c1`, the AUC at 24 h came out at 1290 ng·h/mL.
